From US10626094B2 (La Jolla Institute of Allergy & Immunology, priority 2014, dated 2020)

Target: LMPTP-A (Low Molecular Weight Protein Tyrosine Phosphatase-A) enzyme (Homo sapiens (Human), UniProt P24666)
Assay: LMPTP primary screening / LMPTP (OMFP) enzyme inhibition assay, fluorescence intensity
Type: biochemical
Conditions: LMPTP-A, OMFP substrate, method of Example 2; read-out: IC50
Method: This assay attempts to identify inhibitors of the LMPTP-A (Low Molecular Weight Protein Tyrosine Phosphatase-A) enzyme. It is run in 1536-well format and is measured via fluorescence intensity.
A listing of materials is provided: • Item, source, catalog no. • LMPTP-A Enzyme Stock Solution (4.22 mg/ml or 206.8 μM), SBMRI Protein Facility, • N/A • OMFP, Sigma, M2629-100MG • Bis-Tris pH 6.0, Fisher Sci, BP301-100 • Triton-X 100, Sigma, T9284 • DTT, Sigma, D9779 • Mol. Grade Water, Mediatech, Inc., 46-000-CM • 1536-well black High base opaque bottom plate, Nexus Biosystems, 00019120
Final assay conditions are: • 0.625 nM LMPTP-A Enzyme • 400 μM OMFP • 50 mM Bis-Tris pH 6.0 • 1 mM DTT • 0.01% Triton-X 100 • 20 μM test compound • 3% DMSO (2% from substrate and 1% from compounds) • 6 μL reaction volume • 50 minutes incubation at room temp
Assay Procedure • 1. Prepare Reagents as described in section F. Recipe. • 2. Using LabCyte Echo, transfer 60 nL from 2 mM test compound source plate into assay plate Col. 5-48 (final concentration of test compounds is 20 μM). 60 nL of DMSO should be transferred to col. 1-4 for positive and negative control wells. • 3. Spin plates at 1000 rpm for 1 minute in centrifuge. • 4. […] Using the Bioraptr, add 3 μL/well of enzyme solution to col. 3-48. • 6. Using the Bioraptr, add 3 μL/well of substrate solution to col. 1-48. • 7. Spin plates at 1000 rpm for 1 minute in centrifuge. • 8. Incubate plates in the dark at room temperature for 50 minutes. • 9. Read plates on PerkinElmer Viewlux using a FI protocol.

Sequence of LMPTP-A (Low Molecular Weight Protein Tyrosine Phosphatase-A) enzyme (P24666 whole entry): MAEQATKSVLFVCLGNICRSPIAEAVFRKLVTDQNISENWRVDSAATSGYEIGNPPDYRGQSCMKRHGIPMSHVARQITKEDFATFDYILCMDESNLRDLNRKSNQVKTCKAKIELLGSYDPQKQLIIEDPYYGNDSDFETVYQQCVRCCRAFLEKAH

Row | Molecule | IC50
1 | COc1ncc(-c2cc(NCCCN3CCCCC3)c3ccccc3n2)c(OC)n1 [Compound I141] | 801 to 5000 nM
2 | c1ccc2sc(-c3cc(NCCCN4CCCCC4)c4ccccc4n3)cc2c1 [Compound I140] | 801 to 5000 nM
3 | COc1ccc(-c2cc(NCc3ccccc3)c3ccccc3n2)cc1 [Compound G75, [2-(4-methoxyphenyl)(4-quinolyl)]benzylamine] | 801 to 5000 nM
4 | COc1ccc(-c2cc(Nc3ccc(CC4CCNCC4)cc3)c3ccccc3n2)cc1 [Compound I32, [2-(4-methoxyphenyl)(4-quinolyl)][4-(4-piperidylmethyl)phenyl]amine] | 801 to 5000 nM
5 | COc1ccc(-c2cc(Nc3ccc(OC)nc3)c3ccccc3n2)cc1 [Compound G48, (6-methoxy(3-pyridyl))[2-(4-methoxyphenyl)(4-quinolyl)]amine] | 200 to 800 nM
6 | c1ccc2c(NCCCN3CCCCC3)cc(-c3ccc4nc[nH]c4c3)nc2c1 [Compound I111] | 801 to 5000 nM
7 | COc1ccc(OC)c(-c2cc(NCCCN3CCCCC3)c3ccccc3n2)c1 [Compound I173] | 801 to 5000 nM
8 | CN(C)c1cc(-c2cccs2)nc2ccccc12 [Compound G17, Dimethyl-(2-thiophen-2-yl-quinolin-4-yl)-amine] | > 5000 nM
9 | Clc1ncccc1-c1cc(NCCCN2CCCCC2)c2ccccc2n1 [Compound I99] | 801 to 5000 nM
10 | COc1ccc(-c2cc(NCc3ccc(CN4CCCCC4)cc3)c3ccccc3n2)cc1 [Compound I210, [2-(4-methoxyphenyl)(4-quinolyl)]{[4-(piperidylmethyl)phenyl]methyl}amine] | 801 to 5000 nM
11 | NC(=O)c1ccc(-c2cc(Nc3ccc(CN4CCCCC4)cc3)c3ccccc3n2)cc1 [Compound I6, 4-(4-{[4-(piperidylmethyl)phenyl]amino}-2-quinolyl)benzamide] | > 5000 nM
12 | CCN(CC)S(=O)(=O)c1ccccc1-c1cc(NCCCN2CCCCC2)c2ccccc2n1 [Compound I240] | > 5000 nM
13 | NC(=O)c1ccc(-c2cc(Nc3ccc(CC4CCNCC4)cc3)c3ccccc3n2)cc1 [Compound I220, 4-(4-{[4-(4-piperidylmethyl)phenyl]amino}-2-quinolyl)benzamide] | > 5000 nM
14 | N-ethyl-N-methyl(4-{4-[(3-piperidylpropyl)amino](2-quinolyl)}phenyl)carboxamide [Compound I60] | 801 to 5000 nM
15 | CC(=O)Nc1ccc(-c2cc(NCCCN3CCCCC3)c3ccccc3n2)cc1C(F)(F)F [Compound I77] | 801 to 5000 nM
16 | Fc1cccnc1-c1cc(NCCCN2CCCCC2)c2ccccc2n1 [Compound I94] | 801 to 5000 nM
17 | NC(=O)c1ccc(-c2cc(NCCCN3CCCCC3)c3ccccc3n2)c(F)c1 [Compound I252] | 200 to 800 nM
18 | CN(C)c1cc(-c2ccoc2)nc2ccccc12 [Compound G15, (2-Furan-3-yl-quinolin-4-yl)-dimethyl-amine] | > 5000 nM
19 | FC(F)(F)Oc1cccc(-c2cc(NCCCN3CCCCC3)c3ccccc3n2)c1 [Compound G3, (3-Piperidin-1-yl-propyl)-[2-(3-trifluoromethoxy-phenyl)-quinolin-4-yl]-amine] | 801 to 5000 nM
20 | CN(C)Cc1cccc(Nc2cc(-c3cccc(Cl)c3)nc3ccccc23)c1 [Compound I22, [(3-{[2-(3-chlorophenyl)(4-quinolyl)]amino}phenyl)methyl]dimethylamine] | 200 to 800 nM
21 | O=C(c1ccc(-c2cc(NCCCN3CCCCC3)c3ccccc3n2)cc1)N1CCNCC1 [Compound I193, piperazinyl 4-{4-[(3-piperidylpropyl)amino](2-quinolyl)}phenyl ketone] | 200 to 800 nM
22 | CN1CCC(Cc2cccc(Nc3cc(-c4cccc(Cl)c4)nc4ccccc34)c2)CC1 [Compound I18, [2-(3-chlorophenyl)(4-quinolyl)]{3-[(1-methyl(4-piperidyl))methyl]phenyl}amine] | 801 to 5000 nM
23 | O=S(=O)(c1ccc(-c2cc(NCCCN3CCCCC3)c3ccccc3n2)cc1)N1CCSCC1 [Compound I235, 4-[(4-{4-[(3-piperidylpropyl)amino]-2-quinolyl}phenyl)sulfonyl]-1,4-thiazaperhydroine] | 200 to 800 nM
24 | Cc1nc(C)c(-c2cc(NCCCN3CCCCC3)c3ccccc3n2)s1 [Compound G20] | 801 to 5000 nM
25 | O=C(NCCN1CCCCC1)c1ccc(-c2cc(NCCCN3CCCCC3)c3ccccc3n2)cc1 [Compound I191] | 200 to 800 nM
26 | COc1ccc(-c2cc(Nc3cccc(N(C)C)c3)c3ccccc3n2)cc1 [Compound I25, (3-{[2-(4-methoxyphenyl)(4-quinolyl)]amino}phenyl)dimethylamine] | 801 to 5000 nM
27 | O=C(NCCCO)c1ccc(-c2cc(NCCCN3CCCCC3)c3ccccc3n2)cc1 [Compound I67] | 200 to 800 nM

Row | Molecule | IC50
28 | CC(=O)Nc1ccc(-c2cc(NCCCN3CCCCC3)c3ccccc3n2)cc1F [Compound I232] | 801 to 5000 nM
29 | CC(=O)Nc1cccc(-c2cc(NCCCN3CCCCC3)c3ccccc3n2)c1 [Compound I118] | 801 to 5000 nM
30 | Fc1c(Cl)cccc1-c1cc(NCCCN2CCCCC2)c2ccccc2n1 [Compound I238] | 801 to 5000 nM
31 | O=C(c1ccc(-c2cc(NCCCN3CCCCC3)c3ccccc3n2)cc1)N1CCCC1 [Compound I84, 4-{4-[(3-piperidylpropyl)amino](2-quinolyl)}phenyl pyrrolidinyl ketone] | 801 to 5000 nM
32 | CN(C)c1cccc(Nc2cc(-c3cccc(Cl)c3)nc3ccccc23)c1 [Compound I14, (3-{[2-(3-chlorophenyl)(4-quinolyl)]amino}phenyl)dimethylamine] | 801 to 5000 nM
33 | COc1ccc(-c2cc(NCCCN3CCCCC3)c3ccccc3n2)c(OC)c1 [Compound I174] | 801 to 5000 nM
34 | NC(=O)c1cccc(-c2cc(NCCCN3CCCCC3)c3ccccc3n2)c1 [Compound I123] | 801 to 5000 nM
35 | Cn1ccc2cc(-c3cc(NCCCN4CCCCC4)c4ccccc4n3)ccc21 [Compound I109] | 200 to 800 nM
36 | COc1ccc(-c2cc(Nc3cccc(CN4CCSCC4)c3)c3ccccc3n2)cc1 [Compound G56, [2-(4-methoxyphenyl)(4-quinolyl)][3-(1,4-thiazaperhydroin-4-ylmethyl)phenyl]amine] | 200 to 800 nM
37 | CNC(=O)c1ccc(-c2cc(NCCCN3CCCCC3)c3ccccc3n2)cc1Cl [Compound I251] | 200 to 800 nM
38 | c1ccc(-c2ccc(-c3cc(NCCCN4CCCCC4)c4ccccc4n3)cc2)cc1 [Compound I243] | 801 to 5000 nM
39 | Fc1cc(Cl)ccc1-c1cc(Nc2cccc(CC3CCNCC3)c2)c2ccccc2n1 [Compound I7, [2-(4-chloro-2-fluorophenyl)(4-quinolyl)][3-(4-piperidylmethyl)phenyl]amine] | 801 to 5000 nM
40 | CC(=O)Nc1cc(C(=O)O)cc(-c2cc(NCCCN3CCCCC3)c3ccccc3n2)c1 [Compound I250] | 801 to 5000 nM
41 | Cc1ccc(C)c(-c2cc(NCCCN3CCCCC3)c3ccccc3n2)c1 [Compound I107] | 801 to 5000 nM
42 | FC(F)(F)Oc1ccccc1-c1cc(NCCCN2CCCCC2)c2ccccc2n1 [Compound G2, (3-Piperidin-1-yl-propyl)-[2-(2-trifluoromethoxy-phenyl)-quinolin-4-yl]-amine] | 200 to 800 nM
43 | O=[N+]([O-])c1ccc(C(F)(F)F)c(-c2cc(NCCCN3CCCCC3)c3ccccc3n2)c1 [Compound I152] | 801 to 5000 nM
44 | Cc1ccccc1-c1cc(NCCCN2CCCCC2)c2ccccc2n1 [Compound I159] | 801 to 5000 nM
45 | FC(F)(F)c1cc(-c2cc(Nc3ccc(CN4CCCCC4)cc3)c3ccccc3n2)cc(C(F)(F)F)c1 [Compound I43, {2-[3,5-bis(trifluoromethyl)phenyl](4-quinolyl)}[4-(piperidylmethyl)phenyl]amine] | > 5000 nM
46 | COc1ccc(-c2cc(Nc3ccc(F)cc3)c3ccccc3n2)cc1 [Compound G39, (4-fluorophenyl)[2-(4-methoxyphenyl)(4-quinolyl)]amine] | 801 to 5000 nM
47 | COc1ccc(-c2cc(Nc3ccc(CC4CCN(S(C)(=O)=O)CC4)cc3)c3ccccc3n2)cc1 [Compound I35, 4-[(4-{[2-(4-methoxyphenyl)(4-quinolyl)]amino}phenyl)methyl]-1-(methylsulfonyl)piperidine] | 801 to 5000 nM
48 | CN(C)c1ccc(-c2cc(N(C)C)c3ccccc3n2)cc1 [Compound G11, [2-(4-Dimethylamino-phenyl)-quinolin-4-yl]-dimethyl-amine] | > 5000 nM
49 | FC(F)(F)c1ncccc1-c1cc(NCCCN2CCCCC2)c2ccccc2n1 [Compound I153] | 801 to 5000 nM
50 | COc1ccc(-c2cc(NCc3cccc(C#N)c3)c3ccccc3n2)cc1 [Compound G82, 3-({[2-(4-methoxyphenyl)-4-quinolyl]amino}methyl)benzenecarbonitrile] | 801 to 5000 nM
51 | O=C(NCCCN1CCCCC1)c1ccc(-c2cc(NCCCN3CCCCC3)c3ccccc3n2)cc1 [Compound I198] | 200 to 800 nM
52 | COc1ccc(-c2cc(Nc3cccc(CN4CCCC4)c3)c3ccccc3n2)cc1 [Compound G50, [2-(4-methoxyphenyl)(4-quinolyl)][3-(pyrrolidinylmethyl)phenyl]amine] | 200 to 800 nM
53 | Fc1ccc(-c2ccc(-c3cc(NCCCN4CCCCC4)c4ccccc4n3)cc2)cc1 [Compound I225] | 801 to 5000 nM
